Results taken from patent US20080020998A1, “Sustained release compositions for the therapeutic management of pain, inflammation and inflammation-associated disorders and prophylactic/ therapeutic methods thereof” (priority 2006, published 2008).

How the values were obtained:
[1] = system: patients with osteoarthritis of the knee; test: Double blind, randomized study in osteoarthritis of the knee: adherence and adverse events; assay type: in vivo, human; conditions: 90-day trial, 50 patients randomized to two groups
Method: (§1) After giving their written informed consent, patients were assessed at baseline for demographic and clinical characteristics. They were then randomized to receive either glucosamine sulphate or a combination of glucosamine sulphate, Boswellia serrata and curcuminoids twice-daily in a double blind manner for a total period of 90 days. Both the medications were identical in appearance and taste. Treatment of associated disease was allowed at the discretion of the physician. Patients were assessed at baseline and at the end of 90 days. Four separate 10 cm visual analogue scales (VAS) were used to measure pain in affected knee at rest, on movement and the patients overall assessment of swelling and morning stiffness. VAS was scored from 0 to 10, where 0 indicates no pain/swelling/stiffness and 10 is the worst pain/swelling/stiffness imaginable.
(§2) The Western Ontario McMaster Universities Osteoarthritis Index (WOMAC) (8) was used to evaluate pain, stiffness and physical function of the knee. The pain and stiffness subscales of the WOMAC have scores of 0-20 and 0-8 respectively, with 0 representing no pain or stiffness. […] Adherence to trial medication was recorded. Adverse events, patient withdrawals and concomitant illnesses were recorded in accordance with good clinical practice guidelines.

[2] = system: patients with osteoarthritis of the knee; test: Double blind, randomized study in osteoarthritis of the knee: VAS assessment of pain, stiffness and swelling; assay type: in vivo, human; conditions: twice-daily for 90 days, VAS scored 0 to 10, baseline vs end of 90 days
Description: The institutional ethics committee approved the study protocol. Patients were recruited from the orthopaedic outpatient clinic of a tertiary care hospital. Consecutive outpatients of either sex, aged between 40-65 years in ARA functional class I, II or III and radiologically diagnosed to have osteoarthritis of the knee were identified. Clinically pain or discomfort should have been experienced in the affected knee on most days for the previous 3 months. Of these, patients already undergone knee arthroplasty, taken glucosamine in the previous 3 months or any intraarticular injection within previous month, having renal and/or hepatic disease, diabetes mellitus or a disabling co-morbidity were excluded.
as §1, with “Four separate 10 cm visual analogue scales (VAS) were used to measure pain in affected knee at rest, on movement and the patients overall assessment of swelling and morning stiffness.” left out
as §2, with “knee.” for “knee. The pain and stiffness subscales of the WOMAC have scores of 0-20 and 0-8 respectively, with 0 representing no pain or stiffness.”
The primary outcome measure was the change in VAS and WOMAC assessment of pain and stiffness in the affected knee. Response to treatment was analysed on an intention to treat basis, and the continuous variables were tested for significance by the standard error of difference in means. Categorical data were expressed as percentages with their 95% confidence intervals (CI). […]

SMILES: N[C@H]1C(O)O[C@H](CO)[C@@H](O)[C@@H]1O.O=S(=O)(O)O (some centres unmarked) [glucosamine sulphate]
- Patients who reported headache [1]: 4 (16.0%) patients (%)
- Patients who reported increase in pain [1]: 3 (12.0%) patients (%)
- Mean (95% CI) decrease in VAS score for morning stiffness [2]: 0.13
- Mean (95% CI) decrease in VAS score for pain on use [2]: 0.27
- Mean (95% CI) decrease in VAS score for swelling [2]: 0.45
